According to the supplement of paper PMC10132981, “Formate overflow drives toxic folate trapping in MTHFD1 inhibited cancer cells” (Nature Metabolism, 2023):
Values joined by “and” are separate entries in the source; they are usually repeats but may differ in a detail not shown here. Equal entries are not always repeated.

Experiments:
[1] = tested on: HCT116; assay: cell viability relative to lowest-dose well (resazurin, 96 h); higher = more viable; settings: RPMI + 10% FBS
Summary of the method: (§1)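 Viability values are expressed as percent of the lowest-dose well, using independent replicate cultures. HCT116 cells at 500 cells/well or SW620 cells at 1,000 cells/well were plated in 384-well plates in 50 µl RPMI containing 10% FBS and a metabolite supplement, then given compound dilution series dispensed from 10 mM DMSO stocks. After 96 h at 37 °C and 5% CO2, resazurin (10 µg ml^−1) conversion to resorufin was read by fluorescence at 595 nm after 5 h.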

[2] = tested on: SW620; assay: as above; settings: RPMI + 10% FBS
Summary of the method: as §1

[3] = tested on: PA-TU-8988T; assay: EC50 for viability (resazurin, 96 h); settings: DMEM+GlutaMAX (5% dFBS, 1% P/S)

O=c1[nH]cc(F)c(=O)[nH]1 [5-fluorouracil]
cell viability
Settings	0.0001 M	0.01 µM	0.0278 µM	0.0774 µM	0.215 µM	0.599 µM	1.67 µM	4.64 µM	12.9 µM	35.9 µM
[1], metabolite supplement: 50uM thymidine	4.77%	98.1%	96.2%	96.3%	97.9%	91.9%	63.7%	24.6%	11.8%	6.83%
[1], metabolite supplement: 50uM thymidine + 250uM hypoxanthine	5.93%	106%	104%	105%	106%	103%	84%	39.7%	15.7%	8.5%
[1], metabolite supplement: 250uM hypoxanthine	4.9%	100%	96.9%	97.3%	96.8%	90.6%	78.4%	33.2%	13%	7.4%
[1], metabolite supplement: vehicle	4.53%	102%	102%	101%	99.6%	94.6%	65%	22.9%	11.1%	6.67%
[2], metabolite supplement: 1uM folinic acid	6.83%	102%	100.2%	100%	99.7%	99%	83.6%	48.8%	26.2%	12%
[2], metabolite supplement: 50uM thymidine	6.07% and 5.27%	106%	99.3%	97.1%	96.7%	94.2%	74.8%	49.1%	26.6% and 22.5%	10.4%
[2], metabolite supplement: 50uM thymidine + 1uM folinic acid	7.17%	105%	106%	103%	103%	100%	83.2%	51.5%	26.3%	11.6%
[2], metabolite supplement: 50uM thymidine + 250uM folic acid	6.77%	–	–	–	–	97.8%	79.1%	52.8%	26.3%	11.7%
[2], metabolite supplement: 250uM folic acid	6.37%	–	–	–	–	–	83.4%	51.4%	27.3%	11.9%
[2], metabolite supplement: vehicle	6.87% and 5.97%	99.5%	99.5%	101%	97.4%	95.9% and 98.1%	80.3%	53%	29.5% and 26.5%	11.6%

CN(Cc1cnc2nc(N)nc(N)c2n1)c1ccc(C(=O)N[C@@H](CCC(=O)O)C(=O)O)cc1 [methotrexate]
[3]
Settings	EC50 for viability [nM]
metabolite supplement: Hypoxanthine	237
metabolite supplement: Sodium Formate	85.5
metabolite supplement: Thymidine	50

cell viability
Settings	0.001 µM	0.00278 µM	0.00774 µM	0.0215 µM	0.0599 µM	0.167 µM	0.464 µM	1.29 µM	3.59 µM	10 µM
[1], metabolite supplement: 50uM thymidine	96.3%	96.8%	91.8%	36.4%	31.6%	31.9%	31.5%	31.6%	31.3%	31.5%
[1], metabolite supplement: 50uM thymidine + 250uM hypoxanthine	98.1%	101%	101%	104%	107%	109%	107%	106%	105%	98.1%
[1], metabolite supplement: 250uM hypoxanthine	97.7%	97.5%	99.5%	43.6%	18.9%	16.9%	16.7%	16.5%	16%	15.3%
[1], metabolite supplement: vehicle	99.2%	96.37%	66%	31.4%	19.1%	17.6%	16.8%	16.4%	16.2%	16.4%
[2], metabolite supplement: 1uM folinic acid	101%	101%	100%	100%	96.1%	85.3%	59.2%	51.8%	48.7%	31.6%
[2], metabolite supplement: 50uM thymidine	95.8%	96.1%	73.1%	55%	30.1%	26.8% and 27.8%	27.5%	26%	26.7%	26.6%
[2], metabolite supplement: 50uM thymidine + 1uM folinic acid	102%	102%	101%	103%	102%	85.4%	68.2%	49.2%	43.4%	39.9%
[2], metabolite supplement: 50uM thymidine + 250uM folic acid	–	–	98.6%	94.3%	79.3%	45.2%	37.4%	37.2%	35.5%	35.5%
[2], metabolite supplement: 250uM folic acid	–	–	98.4%	89.1%	78%	47.8%	29.7%	27.5%	27.3%	27.3%
[2], metabolite supplement: vehicle	96.5%	93.7%	70.1%	39.2%	29.9% and 27.9%	32% and 27.2%	27.4%	26.9%	25.7%	26%

Nc1nc(N)c(CC(=O)Nc2cnc(C(=O)N[C@@H](CCC(=O)O)C(=O)O)c(F)c2)c(=O)[nH]1 [TH9619]
Settings	EC50 for viability [nM]
[3], metabolite supplement: Thymidine	29.5
